Source: patent publication US9851354B2, “Methods of treating fragile X syndrome and related disorders” (Alcobra Ltd., priority 2013, dated 2017)
Entries after “also recorded” stand apart in the source; their conditions may differ.

What was measured:
Type in all cases: in vivo, mouse
[1] = system: Akt; test: Brain phosphorylation of Akt (western blot)
Experimental: (§1) In all cases, saline was used as a vehicle (control).
(§2) The Ras-Mek-ERK and PI3K-Akt-mToR signaling pathways are involved in mediating activity dependent alterations in gene transcription underlying changes in synaptic plasticity (Klann and Dever, 2004). Phosphorylated ERK and Akt protein expression was measured by western blot analysis as previously described by Lopez Verrilli (Lopez Verrilli et al., 2009). The antibodies employed were anti-phosphospecific antibodies against Akt (1/1000) and kinase (ERK) 1/2 (1/2000) (Cell Signaling Technology, Danvers, Mass., USA). The antibody against phospho-ERK detects phosphorylation at phospho-ERK 1/2 (Thr202/Tyr204) whereas the antibody against phospho-Akt detects phosphorylation at phospho-Akt (Thr308). Total Akt and ERK 1/2 protein content and phosphorylated ERK and Akt were evaluated by blotting membranes with antiphospho-Akt (1/1000) and antiphospho-ERK antibodies (1/2000) (Cell Signaling Technology, Danvers, Mass., USA). Akt or ERK phosphorylation was normalized to protein content in the same sample and expressed as % of change with respect to basal conditions, considering basal levels as 100%. Protein loading was evaluated by stripping and re-blotting membranes with j-actin antibody (1/1000) (Sigma-Aldrich, St. Louis, Mo., USA). Phosphorylated ERK and Akt protein expression in blood lymphocytes was measured by flow cytometry. For lymphocyte biomarker determinations, a FACStar plus (Becton Dickinson) was used with the excitation laser tuned at 488 nm and green fluorescence from FITC (GST) was collected through a 515-545 nm bandpass filter. The mean FITC fluorescence Intensity was calculated in relation to the fluorescence of reference cells. The mean cellular fluorescence intensity (MFI) is directly proportional to the mean number of Ab molecules bound per cell.

[2] = system: ERK; test: Lymphocyte pERK (flow cytometry); conditions: Fmr1 KO mice, 2 months old
Experimental: as §1, §2

[3] = system: Fmr1 knockout (KO) or Wild Type (WT) mice; test: Social approach (sniffing of a juvenile, Trial 1); conditions: for social approach (sniffing bouts) / social approach, duration of sniffing: 2 months old; for social approach (sniffing bouts): Study 1; for social approach, duration of sniffing: Study 2; for duration of sniffing, Trial 1: 150 mg/kg ip 7 days
Experimental: (§3) Fmr1 knockout mice (KO2) mice (The Dutch-Belgium Fragile X Consortium, 1994), initially obtained from the Jackson Laboratory, and wild type (WT) littermates were generated on a C57BL/6J background and repeatedly backcrossed onto a C57BL/6J background for more than eight generations. The Fmr1 knockout mice were housed in groups of the same genotype in a temperature and humidity controlled room with a 12-h light-dark cycle (lights on from 7 am to 7 pm; testing was conducted during light phase). Room temperature and humidity were recorded continuously in the holding room while food and water were available ad libitum. Testing was conducted on healthy Fmr1 knockout mice and their wild type littermates (N=10 mice per treatment group) at 2 or 6 months of age during the behavioral experiments. Mice were housed in commercial plastic cages and experiments were conducted in line with the requirements of the UK Animals (Scientific Procedures) Act, 1986. All experiments were conducted with experimenters blind to genotype and drug treatment. Animals were allowed a minimum acclimatization period of one week prior to performing any experiment. No prophylactic or therapeutic treatment was administered during the acclimatization period.
as §1
Mice are a social species that engage in easily scored social behaviors including approaching, following, sniffing, grooming, aggressive encounters, sexual interactions, parental behaviors, nesting, and sleeping in a group huddle. Social approach in mice was evaluated by sniffing duration directed to a novel mouse.
Mice were placed in a test arena/cage of the same order of magnitude in size as the adult's home cage (40×23×12 cm cage, with a Perspex lid to facilitate viewing the mice) with fresh wood chippings on the floor. A background mouse odor was created by putting in some non-experimental mice into the apparatus prior to testing. Mice were transferred to the experimental room 10-15 min prior to testing. A test subject and a juvenile were placed simultaneously into the test cage. The total duration and number of bouts of social investigation, defined as sniffing and close following (<2 cm from the tail) of the stimulus juvenile by the tested mouse, was assessed for 3 min. 30 min later, the test was repeated using the same stimulus juvenile. Data parameters collected were the total duration and total number of bouts of sniffing for the acquisition and recognition. A social memory ratio was derived, defined as trial 2/trial 1+2. Therefore, no memory (e.g. 20/(20+20)=0.5 and memory (e.g. 10/(20+10)=<0.5.
Multivariate analysis of variance was employed to assess group differences across data. Repeated measures ANOVA were performed for behavioral data. Statistically significant effects in each ANOVA were followed with post hoc comparisons, using the Newman-Keuls test (Study 1) or the Tukey test (Study 2). A p value of less than 0.05 was considered significant.

[4] = system: Fmr1 knockout (KO) or Wild Type (WT) mice; test: Y-maze water maze left right discrimination; conditions: 2 months old, 150 mg/kg once daily 7 days, Study 1
Experimental: as §3, §1
A clear Perspex Y-maze was filled with 2 cm of water at 20° C. […]

[5] = system: Fmr1 knockout (KO) or Wild Type (WT) mice; test: Y-maze reference memory task (rewarded); conditions: 2 months old, 150 mg/kg once daily 7 days, Study 1
Experimental: as §3, §1
Two tasks were implemented. The first was an unlearned assessment of spontaneous alternation between arm entries. […]

[6] = system: ERK; test: Brain phosphorylation of ERK (western blot)
Experimental: as §1, §2

[7] = Fmr1 KO mice, 2 months old, 150 mg/kg ip 7 days, Study 2
[8] = Fmr1 KO mice, 6 months old, 150 mg/kg ip once daily 7 days
[9] = WT mice, 2 months old, 150 mg/kg ip 7 days, Study 2
[10] = WT mice, 2 months old, 150 mg/kg ip once daily 7 days, Study 1
[11] = any mice (KO or WT), 2 months old, 150 mg/kg ip once daily 7 days, Study 1

## Cc1ncc(CO)c(CO)c1O.O=C1CC[C@@H](C(=O)O)N1 [metadoxine, pyridoxol L,2-pyrrolidon-5 carboxylate]
[1]; [7]
  pAkt levels in hippocampus: complete reversal of activation of Akt
  pAkt levels in pre-frontal cortex: complete reversal of activation of Akt
  pAkt levels in striatum: complete reversal of activation of Akt
[1]; [8]
  whole brain levels of pAkt: reversed this increase in brain pAkt
[1]; [9]
  pAkt levels in hippocampus, pre-frontal cortex and striatum: without effect on WT mice
[1]; [10]
  whole brain phosphorylated Akt: no effect on WT mice
[1]; [11]
  whole brain total Akt levels: no effect
[2]; 150 mg/kg ip once daily 7 days
  lymphocyte pERK: normalized overactivated ERK
[2]; 150 mg/kg oral once daily 7 days
  lymphocyte pERK: normalized overactivated ERK
[2]; 300 mg/kg oral once daily 7 days
  lymphocyte pERK: normalized overactivated ERK
[3]; Fmr1 KO mice, 150 mg/kg ip once daily 7 days, 150 mg/kg
  social approach (sniffing bouts): increased social approach in Fmr1 knockout mice; also recorded: improved social interaction
[3]; Fmr1 KO mice, 150 mg/kg ip once daily 7 days
  social approach, duration of sniffing: reversal was complete
[3]; Fmr1 KO mice, 150 mg/kg oral once daily 7 days
  social approach, duration of sniffing: reversal was complete
[3]; Fmr1 KO mice, 300 mg/kg oral once daily 7 days
  social approach, duration of sniffing: reversal was complete
[3]; [8]
  social approach, duration of sniffing (Trial 1): this effect was partial
  social approach, number of sniffing bouts (Trial 1): did not differ from metadoxine-treated WT mice
[3]; KO-M: Fmr1 KO mice, 6 months old
  duration of sniffing, Trial 1: 28.4
[3]; WT mice, 150 mg/kg ip once daily 7 days
  social approach (sniffing bouts): no effect on WT mice
[3]; WT mice, any dose (150 mg/kg ip, 150 and 300 mg/kg oral)
  social approach, duration of sniffing: without effect on WT mice
[3]; WT mice, 6 months old, 150 mg/kg ip once daily 7 days
  social approach, sniffing bouts and duration (Trial 1): without effect on WT mice
[3]; WT-M: WT mice, 6 months old
  duration of sniffing, Trial 1: 38.5
[4]
  Y-maze water maze spatial discrimination (incorrect arm entries): deficit was reduced
[5]; Fmr1 KO mice
  Y-maze rewarded reference memory learning (appropriate arm entries): reduced this deficit
[5]; WT mice
  Y-maze rewarded reference memory learning: No Effect on WT Mice
[6]; [7]
  pERK levels in hippocampus: complete reversal of activation of ERK
  pERK levels in pre-frontal cortex: effect in pre-frontal cortex was partial
  pERK levels in striatum: complete reversal of activation of ERK
[6]; [8]
  whole brain levels of pERK: increase was reversed by metadoxine treatment
[6]; [9]
  pERK levels in hippocampus, pre-frontal cortex and striatum: without effect on WT mice
[6]; [10]
  whole brain phosphorylation of ERK: no effect on phosphorylation of ERK in WT mice
[6]; [11]
  whole brain total ERK levels: no effect
